According to ChEMBL document CHEMBL5214958, “Discovery of novel compounds as potent activators of Sirt3” (Bioorg Med Chem, 2022):
Values belong to the compound of their own block, whether it stands above or below them.

Tests used:
[1] = molecular target: T1, NAD-dependent protein deacetylase sirtuin-3, mitochondrial (Homo sapiens) (UniProt Q9NTG7); test: (§1) Modulation of human Sirt3 (118 to 399 residues) deacetylation activity under non-steady state assessed as substrate deacetylation at high enzyme concentration with [E]0/[NAD+]0 ratio of 0.6 at 10 uM incubated for 2 mins using MnSOD peptide as substrate in presence of NAD+ by HPLC-assay relative to control; conditions: filed as modulator
T1 sequence (whole entry): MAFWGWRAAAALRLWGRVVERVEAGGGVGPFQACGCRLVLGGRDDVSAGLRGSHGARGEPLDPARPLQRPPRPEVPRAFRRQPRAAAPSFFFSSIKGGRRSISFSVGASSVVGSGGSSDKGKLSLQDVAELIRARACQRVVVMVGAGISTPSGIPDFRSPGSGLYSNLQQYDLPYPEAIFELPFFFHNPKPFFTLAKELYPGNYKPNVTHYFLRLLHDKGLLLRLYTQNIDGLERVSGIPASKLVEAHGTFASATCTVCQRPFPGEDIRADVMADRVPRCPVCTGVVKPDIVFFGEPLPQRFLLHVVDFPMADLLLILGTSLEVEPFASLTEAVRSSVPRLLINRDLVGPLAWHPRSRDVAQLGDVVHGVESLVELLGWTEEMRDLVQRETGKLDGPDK

[2] = molecular target: T1, NAD-dependent protein deacetylase sirtuin-3, mitochondrial (Homo sapiens); test: as §1, with “low” for “high”, “0.1” for “0.6”; conditions: filed as modulator
[3] = molecular target: T1, NAD-dependent protein deacetylase sirtuin-3, mitochondrial (Homo sapiens); test: as §1, with “low” for “high”, “0.3” for “0.6”; conditions: filed as modulator
[4] = molecular target: T2, NAD-dependent protein deacetylase sirtuin-3, mitochondrial (Homo sapiens, UniProt Q9NTG7); test: Binding affinity to human Sirt3 (118 to 399 residues) assessed as dissociation constant using acetylated MnSOD peptide as substrate by microscale thermophoresis analysis
T2 sequence (Q9NTG7 whole entry): T1 sequence (whole entry)

[5] = molecular target: T2, NAD-dependent protein deacetylase sirtuin-3, mitochondrial; test: Binding affinity to human Sirt3 (118 to 399 residues) assessed as dissociation constant of ternary complex using acetylated MnSOD peptide as substrate in presence of OAADPr by microscale thermophoresis analysis
[6] = molecular target: T2, NAD-dependent protein deacetylase sirtuin-3, mitochondrial; test: Binding affinity to human Sirt3 (118 to 399 residues) assessed as dissociation constant using 625nM acetylated MnSOD peptide as substrate by microscale thermophoresis analysis
[7] = molecular target: T2, NAD-dependent protein deacetylase sirtuin-3, mitochondrial; test: Binding affinity to human Sirt3 (118 to 399 residues) assessed as dissociation constant using acetylated MnSOD peptide as substrate in presence of honokiol by microscale thermophoresis analysis
[8] = molecular target: T2, NAD-dependent protein deacetylase sirtuin-3, mitochondrial; test: Modulation of human Sirt3 (118 to 399 residues) deacetylation activity under non-steady state assessed as substrate deacetylation at low enzyme concentration with [E]0/[NAD+]0 ratio of 0.1 incubated for 5 mins using MnSOD peptide as substrate in presence of NAD+ by HPLC-assay relative to control
[9] = molecular target: T2, NAD-dependent protein deacetylase sirtuin-3, mitochondrial; test: Binding affinity to human Sirt3 (118 to 399 residues) assessed as dissociation constant (Koff) by short DNA nano levers based switchSENSE microfluid bio-chip analysis
[10] = molecular target: T2, NAD-dependent protein deacetylase sirtuin-3, mitochondrial; test: Binding affinity to human Sirt3 (118 to 399 residues) assessed as dissociation constant (Koff) of ternary complex using acetylated MnSOD peptide as substrate in presence of OAADPr by short DNA nano levers based switchSENSE microfluid bio-chip analysis
[11] = molecular target: T2, NAD-dependent protein deacetylase sirtuin-3, mitochondrial; test: Binding affinity to human Sirt3 (118 to 399 residues) assessed as dissociation constant of ternary complex using acetylated MnSOD peptide as substrate in presence of OAADPr by short DNA nano levers based switchSENSE microfluid bio-chip analysis

Activity [1]: 127%
Activity [2]: 114%
SMILES: Cc1ccc(-c2nc3n(n2)C(=O)CC(c2cccc4ccccc24)S3)cc1 (stereo not given)

Activity [3]: 108%
Kd [4]: 0.97 µM
Kd [5]: 0.29 µM
Kd [6]: 2.99 µM
SMILES: C=CCc1ccc(O)c(-c2ccc(O)c(CC=C)c2)c1 [HONOKIOL]

Kd [4]: 7.3 µM
Kd [7]: 6.6 µM
SMILES: NC(=O)c1ccc[n+]([C@@H]2C[C@H](COP(=O)(O)OP(=O)(O)OC[C@H]3O[C@@H](n4cnc5c(N)ncnc54)[C@H](O)[C@@H]3O)[C@@H](O)[C@H]2O)c1

Activity [3]: 100%
SMILES: CCCCNC(=O)[C@@H](Cc1ccc(Cl)cc1)NC(=O)CSC(=S)c1ccccc1

Activity [3]: 104%
Activity [1]: 107%
SMILES: C=C(CC)C(=O)c1ccc(OCC(=O)N[C@H](Cc2ccc(Cl)cc2)C(=O)NCCCC)c(Cl)c1Cl

EC50 [8]: < 5 µM
Kd [9]: 0.22 s⁻¹
Kd [10]: 0.162 s⁻¹
Kd [11]: 12.6 µM
SMILES: CCCCNC(=O)COc1ccc2c(c1)CCc1ccccc1C2NC(=O)CCCOc1cc([N+](=O)[O-])c(C(C)O)cc1OC (stereo not given)
